Data: ChEMBL document CHEMBL1132555, “Tyrosine kinase inhibitors. 16. 6,5,6-tricyclic benzothieno[3, 2-d]pyrimidines and pyrimido[5,4-b-] and -[4,5-b]ĭndoles as potent inhibitors of the epidermal growth factor receptor tyrosine kinase” (J Med Chem, 1999)

How the values were obtained:
[1] = biological target: T1, Epidermal growth factor receptor (Homo sapiens, UniProt P00533)
Description: Concentration needed to inhibit the phosphorylation of a 14-residue fragment of phospholipase C-gamma1 by Epidermal growth factor receptor (prepared from human A431 carcinoma cell vesicles by immunoaffinity chromatography)

[2] = biological target: T1, Epidermal growth factor receptor; assay: Inhibition of Epidermal growth factor receptor autophosphorylation in A431 cells
[3] = biological target: Insulin receptor (Homo sapiens) (UniProt P06213); assay: Inhibition against Insulin receptor kinase at 50 uM
Sequence of Insulin receptor (Homo sapiens) (P06213 28-758 limits assumed): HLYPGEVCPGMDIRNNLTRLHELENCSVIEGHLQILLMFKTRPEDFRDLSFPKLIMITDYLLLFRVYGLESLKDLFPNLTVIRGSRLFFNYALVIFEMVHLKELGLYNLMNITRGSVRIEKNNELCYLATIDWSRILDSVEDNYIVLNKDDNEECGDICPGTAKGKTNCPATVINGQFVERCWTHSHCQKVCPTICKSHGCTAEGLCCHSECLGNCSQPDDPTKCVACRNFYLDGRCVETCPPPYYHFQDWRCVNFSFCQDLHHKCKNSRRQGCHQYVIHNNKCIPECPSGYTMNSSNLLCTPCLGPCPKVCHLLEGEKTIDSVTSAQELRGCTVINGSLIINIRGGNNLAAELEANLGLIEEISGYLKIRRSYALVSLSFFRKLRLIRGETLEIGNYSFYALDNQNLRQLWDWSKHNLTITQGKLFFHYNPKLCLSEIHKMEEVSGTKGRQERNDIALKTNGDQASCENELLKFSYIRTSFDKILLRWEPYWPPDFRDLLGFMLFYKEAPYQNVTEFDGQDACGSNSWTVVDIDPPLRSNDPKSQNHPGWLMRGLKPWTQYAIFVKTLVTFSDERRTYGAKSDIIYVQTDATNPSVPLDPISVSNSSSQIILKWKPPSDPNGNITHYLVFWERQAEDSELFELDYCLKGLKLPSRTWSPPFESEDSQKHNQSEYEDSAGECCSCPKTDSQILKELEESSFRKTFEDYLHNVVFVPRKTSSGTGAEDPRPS
Sequence of Insulin receptor (Homo sapiens) (P06213 763-1382 limits assumed): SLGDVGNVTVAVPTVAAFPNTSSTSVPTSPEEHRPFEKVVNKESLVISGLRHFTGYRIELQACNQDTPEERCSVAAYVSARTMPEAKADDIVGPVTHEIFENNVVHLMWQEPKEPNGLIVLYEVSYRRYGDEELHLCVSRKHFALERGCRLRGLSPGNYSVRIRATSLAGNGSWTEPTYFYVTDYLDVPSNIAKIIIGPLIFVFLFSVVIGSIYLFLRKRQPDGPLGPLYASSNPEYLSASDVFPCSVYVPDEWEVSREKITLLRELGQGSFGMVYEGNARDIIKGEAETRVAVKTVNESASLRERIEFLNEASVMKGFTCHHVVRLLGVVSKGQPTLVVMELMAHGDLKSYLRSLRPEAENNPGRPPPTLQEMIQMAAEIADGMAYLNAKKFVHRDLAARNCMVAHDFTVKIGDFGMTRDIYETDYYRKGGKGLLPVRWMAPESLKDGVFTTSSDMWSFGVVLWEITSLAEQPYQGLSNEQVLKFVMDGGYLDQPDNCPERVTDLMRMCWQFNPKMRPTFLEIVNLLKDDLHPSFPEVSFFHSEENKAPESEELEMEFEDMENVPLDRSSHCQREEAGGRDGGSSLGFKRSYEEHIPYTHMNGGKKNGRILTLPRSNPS

[4] = biological target: Fibroblast growth factor receptor (Homo sapiens) (UniProt P22607+P11362+P22455+P21802); assay: Inhibition of Fibroblast growth factor receptor at 50 uM; assay type: protein assay
Sequence of Fibroblast growth factor receptor (Homo sapiens) (P11362 whole entry, looked up): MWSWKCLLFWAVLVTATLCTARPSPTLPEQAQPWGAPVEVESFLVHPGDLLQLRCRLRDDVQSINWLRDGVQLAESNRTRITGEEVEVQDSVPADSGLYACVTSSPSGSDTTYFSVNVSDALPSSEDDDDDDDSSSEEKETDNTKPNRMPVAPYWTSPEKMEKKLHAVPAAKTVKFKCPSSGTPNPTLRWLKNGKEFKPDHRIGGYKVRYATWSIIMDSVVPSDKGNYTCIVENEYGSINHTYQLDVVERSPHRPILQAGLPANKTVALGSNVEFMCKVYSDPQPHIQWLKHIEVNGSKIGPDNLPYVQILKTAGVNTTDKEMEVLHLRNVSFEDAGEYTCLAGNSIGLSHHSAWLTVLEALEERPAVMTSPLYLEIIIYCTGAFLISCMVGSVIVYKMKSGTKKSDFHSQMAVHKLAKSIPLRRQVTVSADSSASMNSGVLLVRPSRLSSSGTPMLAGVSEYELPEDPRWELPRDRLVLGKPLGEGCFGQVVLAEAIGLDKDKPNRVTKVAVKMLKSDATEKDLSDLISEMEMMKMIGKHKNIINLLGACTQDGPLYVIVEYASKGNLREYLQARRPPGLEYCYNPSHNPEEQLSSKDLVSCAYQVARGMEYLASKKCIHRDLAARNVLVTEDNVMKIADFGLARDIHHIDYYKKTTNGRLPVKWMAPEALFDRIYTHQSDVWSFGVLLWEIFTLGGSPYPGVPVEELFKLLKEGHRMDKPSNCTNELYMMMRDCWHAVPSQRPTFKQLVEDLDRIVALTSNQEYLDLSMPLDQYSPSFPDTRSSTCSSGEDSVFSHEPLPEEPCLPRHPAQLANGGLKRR
Sequence of Fibroblast growth factor receptor (Homo sapiens) (P21802 whole entry, looked up): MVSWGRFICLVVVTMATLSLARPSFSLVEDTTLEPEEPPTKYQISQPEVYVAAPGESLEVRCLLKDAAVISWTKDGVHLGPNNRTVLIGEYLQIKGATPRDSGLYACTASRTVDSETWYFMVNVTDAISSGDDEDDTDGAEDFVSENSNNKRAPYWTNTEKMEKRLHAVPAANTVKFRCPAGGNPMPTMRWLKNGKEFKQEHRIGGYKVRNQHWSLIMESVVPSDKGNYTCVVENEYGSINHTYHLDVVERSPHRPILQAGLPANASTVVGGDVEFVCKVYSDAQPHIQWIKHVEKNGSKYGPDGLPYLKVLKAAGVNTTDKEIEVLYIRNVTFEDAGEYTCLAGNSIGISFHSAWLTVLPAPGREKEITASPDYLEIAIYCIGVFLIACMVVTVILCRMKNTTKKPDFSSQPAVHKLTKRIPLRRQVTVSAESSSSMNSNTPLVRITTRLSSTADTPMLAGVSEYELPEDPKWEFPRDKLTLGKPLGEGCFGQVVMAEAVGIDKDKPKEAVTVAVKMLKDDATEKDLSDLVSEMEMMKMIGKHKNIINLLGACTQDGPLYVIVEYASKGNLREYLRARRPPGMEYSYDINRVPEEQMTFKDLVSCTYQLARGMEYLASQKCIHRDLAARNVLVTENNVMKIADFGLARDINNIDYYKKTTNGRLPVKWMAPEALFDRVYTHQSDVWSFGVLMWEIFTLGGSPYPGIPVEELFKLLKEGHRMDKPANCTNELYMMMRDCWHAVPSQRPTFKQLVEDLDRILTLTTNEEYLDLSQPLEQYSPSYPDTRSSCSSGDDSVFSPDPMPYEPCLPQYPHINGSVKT
Sequence of Fibroblast growth factor receptor (Homo sapiens) (P22455 whole entry, looked up): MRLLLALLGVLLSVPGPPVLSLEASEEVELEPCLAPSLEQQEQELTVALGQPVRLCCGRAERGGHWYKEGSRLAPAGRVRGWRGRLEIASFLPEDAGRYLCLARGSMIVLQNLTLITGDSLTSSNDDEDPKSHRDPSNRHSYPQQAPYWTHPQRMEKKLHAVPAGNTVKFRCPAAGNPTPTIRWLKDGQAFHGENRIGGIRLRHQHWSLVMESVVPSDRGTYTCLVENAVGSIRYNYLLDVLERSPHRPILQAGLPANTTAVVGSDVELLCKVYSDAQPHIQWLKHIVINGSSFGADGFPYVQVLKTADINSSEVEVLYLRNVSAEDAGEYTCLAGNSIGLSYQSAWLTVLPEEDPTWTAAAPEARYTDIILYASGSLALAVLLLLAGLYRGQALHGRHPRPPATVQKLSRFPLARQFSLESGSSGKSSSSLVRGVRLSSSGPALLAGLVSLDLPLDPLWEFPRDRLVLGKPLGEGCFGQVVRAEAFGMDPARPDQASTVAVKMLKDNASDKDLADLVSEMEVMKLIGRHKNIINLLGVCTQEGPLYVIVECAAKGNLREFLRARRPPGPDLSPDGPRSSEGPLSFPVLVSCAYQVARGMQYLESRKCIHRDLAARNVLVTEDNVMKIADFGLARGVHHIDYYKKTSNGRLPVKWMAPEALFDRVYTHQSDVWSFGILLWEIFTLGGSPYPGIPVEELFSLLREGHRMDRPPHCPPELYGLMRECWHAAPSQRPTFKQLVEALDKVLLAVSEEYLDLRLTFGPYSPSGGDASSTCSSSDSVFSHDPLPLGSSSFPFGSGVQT
Sequence of Fibroblast growth factor receptor (Homo sapiens) (P22607 whole entry, looked up): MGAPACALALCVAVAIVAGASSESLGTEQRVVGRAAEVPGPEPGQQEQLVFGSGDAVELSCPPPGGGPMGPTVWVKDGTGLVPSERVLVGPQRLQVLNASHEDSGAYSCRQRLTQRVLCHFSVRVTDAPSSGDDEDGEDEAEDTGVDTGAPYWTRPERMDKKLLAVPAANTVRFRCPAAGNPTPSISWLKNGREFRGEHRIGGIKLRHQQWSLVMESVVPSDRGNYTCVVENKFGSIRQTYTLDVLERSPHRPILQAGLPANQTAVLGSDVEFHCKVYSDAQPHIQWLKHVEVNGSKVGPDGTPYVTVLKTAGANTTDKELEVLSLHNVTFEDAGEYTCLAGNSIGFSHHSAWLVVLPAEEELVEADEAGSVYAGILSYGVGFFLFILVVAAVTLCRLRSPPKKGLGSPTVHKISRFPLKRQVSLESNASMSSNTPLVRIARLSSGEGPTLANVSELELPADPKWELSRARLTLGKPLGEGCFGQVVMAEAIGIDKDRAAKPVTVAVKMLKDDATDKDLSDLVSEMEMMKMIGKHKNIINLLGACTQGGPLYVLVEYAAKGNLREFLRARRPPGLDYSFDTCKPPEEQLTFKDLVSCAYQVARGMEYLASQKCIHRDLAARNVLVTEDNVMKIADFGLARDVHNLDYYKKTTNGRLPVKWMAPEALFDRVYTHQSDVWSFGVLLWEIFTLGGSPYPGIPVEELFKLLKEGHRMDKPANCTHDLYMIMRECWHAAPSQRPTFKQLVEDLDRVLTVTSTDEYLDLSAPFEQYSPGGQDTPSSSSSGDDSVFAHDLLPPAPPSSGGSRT

[5] = biological target: Protein kinase C (PKC) (Homo sapiens) (UniProt O94806+P41743+P17252+P05129+Q05655+P05771+Q05513+Q02156+P24723+Q15139+Q04759); assay: Inhibition of Protein kinase C at 50 uM; assay type: protein assay
[6] = biological target: Proto-oncogene tyrosine-protein kinase Src (Homo sapiens) (UniProt P12931); assay: Inhibition of c-Src tyrosine kinase at 50 uM
[7] = Inhibition of Platelet-derived growth factor receptor at 50 uM
[8] = biological target: Proto-oncogene tyrosine-protein kinase Src (Homo sapiens) (UniProt P12931); assay: Inhibition against c-Src tyrosine kinase at 1.25 uM

Nc1cc2sc3c(Nc4cccc(Br)c4)ncnc3c2cc1F
IC50 [1]: 1 nM
IC50 [2]: 42 nM

O=[N+]([O-])c1ccc2sc3c(Nc4ccccc4)ncnc3c2c1
IC50 [1]: 58 nM

O=[N+]([O-])c1ccc2sc3c(Nc4cccc(C(F)(F)F)c4)ncnc3c2c1
IC50 [1]: 460 nM

Cc1cccc(Nc2cc(NCCO)ncn2)c1
IC50 [1]: 1 nM

Brc1cccc(Nc2ncnc3c2sc2ccccc23)c1
inhibition [3]: 0%
inhibition [4]: 21%
inhibition [5]: 18%
inhibition [6]: 0%
inhibition [7]: 0%

Brc1cccc(Nc2ncnc3sccc23)c1
IC50 [1]: 35 nM

Nc1ccc2sc3c(Nc4cccc(Br)c4)ncnc3c2c1
inhibition [3]: 0%
inhibition [5]: 0%

CCNc1cc2sc3c(Nc4cccc(Br)c4)ncnc3c2cc1F
IC50 [1]: 7.9 nM
IC50 [2]: 85 nM

O=[N+]([O-])c1cccc2c1sc1c(Nc3cccc(Br)c3)ncnc12
IC50 [1]: 158 nM

COc1ccc2c(c1)sc1c(Nc3cccc(Br)c3)ncnc12
inhibition [3]: 0%
inhibition [4]: 19%
inhibition [5]: 20%
inhibition [6]: 22%
inhibition [7]: 21%

CNc1ccc2sc3c(Nc4cccc(Br)c4)ncnc3c2c1
IC50 [1]: 1.1 nM
IC50 [2]: 33 nM

C[C@@H](Nc1[nH]cnc2c3ccccc3nc1-2)c1ccccc1
IC50 [1]: > 100000 nM

Brc1cccc(Nc2ncnc3cc4[nH]ccc4cc23)c1
IC50 [1]: 0.39 nM

Nc1ccc2sc3c(Nc4cccc(C(F)(F)F)c4)ncnc3c2c1
inhibition [3]: 0%
IC50 [1]: 47 nM
inhibition [4]: 17%
inhibition [5]: 51%
inhibition [6]: 13%
inhibition [7]: 12%

Cc1cccc(Nc2ncnc3c2sc2ccc(N)cc23)c1
inhibition [3]: 14%
IC50 [1]: 2.1 nM
IC50 [2]: 98 nM
inhibition [4]: 24%
inhibition [5]: 44%
inhibition [6]: 47%
inhibition [7]: 17%

O=[N+]([O-])c1ccc2c(c1)sc1c(Nc3cccc(Br)c3)ncnc12
IC50 [1]: 48 nM

COc1cccc2c1sc1c(Nc3cccc(Br)c3)ncnc12
IC50 [1]: 12.6 nM

Nc1cccc2c1sc1c(Nc3cccc(Br)c3)ncnc12
IC50 [1]: 2.7 nM

CN(C)CCNc1[nH]cnc2nc3ccccc3c1-2
IC50 [1]: > 10000 nM

Cn1c2ccccc2c2c(Nc3cccc(Br)c3)ncnc21
IC50 [1]: 742 nM
IC50 [2]: 769 nM

Nc1ccc2c(c1)sc1c(Nc3cccc(Br)c3)ncnc12
IC50 [1]: 0.47 nM

c1ccc2c(c1)[nH]c1c(NC3CCCCC3)ncnc12
IC50 [1]: > 100000 nM

CN(C)c1ccc2sc3c(Nc4cccc(Br)c4)ncnc3c2c1
IC50 [1]: 19.8 nM

Cc1nc(Nc2cccc(Br)c2)c2c(n1)[nH]c1ccccc12
IC50 [1]: > 10000 nM

COc1cc2sc3c(Nc4cccc(Br)c4)ncnc3c2cc1OC
IC50 [1]: 444 nM

c1ccc(CNc2ncnc3c2sc2ccccc23)cc1
inhibition [3]: 0%
inhibition [4]: 11%
inhibition [6]: 0%
inhibition [7]: 10%

COc1ccc2[nH]c3ncnc(Nc4cccc(Br)c4)c3c2c1
inhibition [3]: 0%
IC50 [1]: 1.2 nM
IC50 [2]: 13 nM
inhibition [8]: 8%
inhibition [4]: 30%
inhibition [7]: 2%

Nc1nc(Nc2cccc(Br)c2)c2c(n1)[nH]c1ccccc12
IC50 [1]: 147 nM
IC50 [2]: 493 nM

Cc1cccc(Nc2ncnc3c2sc2ccc([N+](=O)[O-])cc23)c1
IC50 [1]: 11 nM

Clc1cccc(Nc2ncnc3c2sc2ncccc23)c1
IC50 [1]: > 1000 nM

C[C@H](Nc1ncnc2c1sc1ccccc12)c1ccccc1
inhibition [3]: 13%
IC50 [1]: 538 nM
inhibition [4]: 20%
inhibition [5]: 7%
inhibition [6]: 0%
inhibition [7]: 0%

CN(C)CCNc1[nH]cnc2c3ccccc3nc1-2
IC50 [1]: > 100000 nM

COc1cccc2sc3c(Nc4cccc(Br)c4)ncnc3c12
IC50 [1]: 20 nM
